Test results taken from patent publication EP0516978A1, “Enantiomers of substituted (aminophenyl)-heteroarylethylamines, a method for their preparation, and pharmaceutical compositions containing these compounds” (HOECHST AKTIENGESELLSCHAFT, priority 1991, dated 1992).

What was measured:
Mongolischen Gerbil = assay: Neuroprotection after forebrain ischaemia in the gerbil (5-minute bilateral carotid artery occlusion); format: in vivo; details: treated vs. control group; for Verhaltensscore (% Änderung): 5-step neurological score over 45 min after ischaemia; for Zellnekrosen (% Änderung): 5-step histopathological score, hippocampal CA₁ region, 7 days later
From the text: Anhand der nachfolgend beschriebenen Versuchsdurchführungen (K. Rudolphi et. al, J. Cereb. Blood Flow Metab., 7:74. 1987) ergibt sich, daß die unten aufgeführten Verbindungen in der Lage sind, zerebrale Nervenzellen gegen eine schwere ischämische Schädigung zu schützen.
Bei 20 männlichen Mongolischen Gerbils werden unter Halothan-Narkose durch beidseitigen Verschluß der A. Carotis mittels Aneurysmaclips eine 5-minütige Ischämie des Vorderhirns mit anschließender Rezirkulation erzeugt. Die Tiere werden 45 Minuten lang nach der Ischämie beobachtet und das Ausmaß der neurologischen Symptome mittels eines 5-stufigen Verhaltensscores bestimmt. 7 Tage später werden die Tiere unter Halothan-Narkose dekapitiert, die Gehirne in Carnoy-Lösung immersionsfixiert und das Ausmaß des Neuronenschadens in der CA₁-Region des Hippocampus mit Hilfe eines 5-stufigen histopathologischen Scores "blind" bestimmt. Die Prüfsubstanzen werden je einer Gruppe von 10 Gerbils intraperitoneal oder per os 15 Minuten vor der Ischämie verabreicht. Pro Testsubstanz wird eine ischämische Kontrollgruppe von ebenfalls 10 Tieren mit dem jeweiligen Lösungsmittel behandelt. Die Ergebnisse sind in Tabelle 6 als % Änderung des mittleren neurologsichen Verhaltensscores bzw. histopathologischen Scores (Summe der individuellen Scores/Anzahl der Tiere) der behandelten vs. Kontrollgruppe zusammengefaßt. Tabelle 1
Je höher der Verhaltensscore (-% Änderungen), desto besser ist die Erholung der Tiere nach Ischämie.

NMRI-Mäusen = assay: CNS tolerability in the healthy animal (mouse), behavioural observation; format: in vivo, Maus; details: for Symptome: phenomena observed 3 hours after application; for Dosis, ab der eine ZNS erregende Aktivität, die als unverträglich gilt, auftritt: mouse, i.p., dose from which the behaviour-altering CNS excitation is seen
Procedure: Adulten männlichen NMRI-Mäusen werden die zu untersuchenden Substanzen in Dosen von 0,1-100 mg/kg i.p. in einem Volumen von 10 ml/kg verabreicht. Pro Versuchsdosis werden drei Tiere eingesetzt, wobei eine Gruppe als Placebo nur mit dem Lösungsmittel behandelt (Kontrolle) mitgeführt wird.
Die Placebogruppe dient dabei zur zeitgleichen Verhaltensfeststellung, parallel zur Versuchsgruppe. Sofort nach der Applikation werden die Tiere in Dreiergruppen in Beobachtungskäfige gesetzt und drei Stunden lang am ersten Tag beobachtet. Anschließend werden die Tiere gefüttert, getränkt und weitere sechs Tage, jeweils nach 24 Stunden, für eine halbe Stunde beobachtet. Dabei ergaben sich folgende Befunde: Tabelle 2

[1] = 30 mg/kg ip. 15 min before 5-min forebrain ischaemia
[2] = 30 mg/kg ip. 15 min before ischaemia

SMILES | Verhaltensscore (% Änderung) (Mongolischen Gerbil; [1]) | Zellnekrosen (% Änderung) (Mongolischen Gerbil; [2]) | Symptome (NMRI-Mäusen; dose 0,1-3 mg/kg i.p.) | Symptome (NMRI-Mäusen; dose 1,0-3,0 mg/kg i.p.) | Symptome (NMRI-Mäusen; dose 10-100 mg/kg i.p.) | Dosis, ab der eine ZNS erregende Aktivität, die als unverträglich gilt, auftritt (NMRI-Mäusen) [mg/kg i. p.] | Symptome (NMRI-Mäusen; dose 0,1-0,3 mg/kg i.p.) | Dosis, ab der eine ZNS erregende Aktivität, die als unverträglich gilt, auftritt (NMRI-Mäusen; listed as (+)-Form) [mg/kg i. p.] | Verhaltensscore (% Änderung) (Mongolischen Gerbil; 60 mg/kg ip. 15 min before 5-min forebrain ischaemia) | Zellnekrosen (% Änderung) (Mongolischen Gerbil; 60 mg/kg ip. 15 min before ischaemia) | Symptome (NMRI-Mäusen; dose 0,01-0,3 mg/kg i.p.) | Dosis, ab der eine ZNS erregende Aktivität, die als unverträglich gilt, auftritt (NMRI-Mäusen; listed as (-)-Form) [mg/kg i. p.]
CNC(Cc1ccccc1N)c1sccc1C (racemic) [Razemisch II, 2-Amino-N-methyl-α-(3-methyl-2-thienyl)benzylethanamin] | -15 | -75 | vermehrter Putztrieb | Unruhe, Erregung, vermehrter Putztrieb | Taumeln, vermehrter Putztrieb, Unruhe, Erregung | ≥ 10 |  |  |  |  |  | 
CNC(Cc1ccccc1N)c1sccc1C (single isomer, unassigned; (+)) [(+)II, 2-Amino-N-methyl-α-(3-methyl-2-thienyl)benzylethanamin] | -51 | -90 |  | kurzandauernde Erregung | vermehrter Putztrieb, Unruhe, Erregung, Taumeln |  | o. B. | ≥ 10 |  |  |  | 
CNC(Cc1ccccc1N)c1sccc1C (single isomer, unassigned; (-)) [(-)II, 2-Amino-N-methyl-α-(3-methyl-2-thienyl)benzylethanamin] | -32 |  |  | o. B. | Unruhe, vermehrter Putztrieb |  |  |  | -75 | -23 | o. B. | ≥ 100
